Data taken from US9302967B2, “Substituted cathechols as inhibitors of IL-4 and IL-5 for the treatment of bronchial asthma” (Council of Scientific & Industrial Research, priority 2011, dated 2016).
Like-named read-outs stand apart in the source and are kept apart here.

Tests used:
IL-4 [1] = experiment: PHA-stimulated human PBMC, IL-4 in supernatant by Cytometric Bead Array; type: cell-based; conditions: PHA 10 μg/ml, read-out: IC50 inhibitory activity, stimulation-induced IL-4
Protocol: Normal human peripheral blood mononuclear cells (PBMC) were stimulated with phytohemagglutinin (PHA) 10 μg/ml in the presence and absence of varying concentrations of compounds of formula I and II. Culture supernatants were harvested and IIL-4 and IL-5 cytokines were quantitated by Cytometric Bead Array (CBA™) kit (Becton Dickinson, USA) following manufacturers instructions using a Flow Cytometer (BD LSR, Becton Dickinson) and CBA™ analysis software (Becton Dickinson).

IL-4 [2] = experiment: IL-4 levels in lung homogenates by ELISA, OVA mouse model; type: in vivo, BALB/c mice; conditions: for IL-4 levels in lung: 10 mg/kg vs OVA/OVA/VEH
Protocol: (§1) Mice were sensitized with 0.2 ml PBS containing 50 μg ovalbumin (OVA) (Sigma, USA) and 4 mg aluminum hydroxide in saline intraperitonially (i.p.) on days 0, 7 and 14 as shown in FIG. 1. Sham group mice were sensitized with only alum dissolved in PBS. From day 18 to 27, mice were exposed to aerosol of OVA (3%) inhalation 25 minutes daily in a Plexiglas chamber (20×20×10 cm^3). The aerosol was generated by a nebulizer (OMRON CX model) with an airflow rate of 9 L/minute. Sham group mice were challenged with PBS alone.
(§2) Compound 1 of formula I was dissolved in 50% ethanol. So 50% ethanol was used as a vehicle. Group I was alum sensitized, saline challenged and treated with vehicle (SHAM/SAL/VEH), group II was OVA sensitized, OVA challenged and treated with 50% ethanol as vehicle (OVA/OVA/VEH), group III, IV, V, VI were OVA sensitized, OVA challenged and treated with 0.05, 0.1, 5 and 10 mg/kg compound 1 of formula I. Drug was given in the volume of 10 μl orally twice per day. Confirmatory experiments were done with two concentrations of compound 1 of formula I (5 and 10 mg/kg twice a day), and these findings were compared with parallel group of mice which were OVA-sensitized, -OVA challenged and treated orally once a day with 0.75 mg/kg Dexamethasone (OVA/OVA/DEX).
OVA-specific IgE levels in sera were measured by enzyme linked immunosorbent assay (ELISA) as described previously with little modification (Inflam. Res. 2003, 52, 101-106). Absorbance values at 450 nm were converted to arbitrary values by multiplying with 100. IL-4 levels in lung homogenates were measured by ELISA method as per manufacturer's instructions (BD Pharmingen, USA). Lung homogenates were prepared by homogenizing the lung tissue (approximately 100 mg) with 1 ml PBS followed by centrifugation at 10000 g for 30 min at 4° C. Results were expressed in pg/50 μg protein. Protein estimation was done by BCA method.

OVA specific IgE = experiment: OVA-specific IgE levels in sera by ELISA, OVA mouse model; type: in vivo, BALB/c mice; conditions: 10 mg/kg vs OVA/OVA/VEH
Protocol: as §1
Compound 1 of formula I was dissolved in 50% ethanol. So 50% ethanol was used as a vehicle. Group I was alum sensitized, saline challenged and treated with vehicle (SHAM/SAL/VEH), group II was OVA sensitized, OVA challenged and treated with 50% ethanol as vehicle (OVA/OVA/VEH), group III, IV, V, VI were OVA sensitized, OVA challenged and treated with 0.05, 0.1, 5 and 10 mg/kg compound 1 of formula I. Drug was given in the volume of 10 μl orally twice per day. […]
OVA-specific IgE levels in sera were measured by enzyme linked immunosorbent assay (ELISA) as described previously with little modification (Inflam. Res. 2003, 52, 101-106). Absorbance values at 450 nm were converted to arbitrary values by multiplying with 100. IL-4 levels in lung homogenates were measured by ELISA method as per manufacturer's instructions (BD Pharmingen, USA). […]

lung inflammation = experiment: Histological analysis of lung inflammation (H&E), OVA mouse model; type: in vivo, BALB/c mice
Protocol: as §1, §2
The excised lung portion was fixed in 10% buffered formalin. […]

[3] = 14 d acute oral toxicity: observations, body weight, organ weight, necropsy; type: in vivo, mice
Protocol: 14 d acute oral toxicity of compound 1 of formula I was performed. Three doses were selected: 47, 23, 12 and 0 mg/kg bw (Vehicle control) of compound 1 of formula I was administered by single oral gavage using blunt ended steel canula.

3T3 cells = experiment: In vitro cytotoxicity by NRU method, predicted acute oral LD50; type: cell-based; conditions: derived from in vitro cytotoxicity
Protocol: (§3) Earlier, LD50 of ICB 14 C6 was derived from in vitro cytotoxicity assay by NRUmethod in 3T3 cells. […] For 90d sub-chronic toxicity study the highest dose selected was one-fourth of the limit dose. Four different doses of ICB14 C6 (47, 23, 12 and 0 [vehicle] mg/kg body weight) were prepared in ground nut oil daily for 5 days a week for 90d.

[4] = mouse, in vivo
Protocol: as §3
Blood samples were taken from the retro-orbital sinus on day 91 for hematological and clinical chemistry analyses. Clinical analysis included serum creatinine, serum gammaGT, serum uric acid, serum glucose, serum protein, serum bilirubin, serum GOT/AST and serum GPT/ALT. Hematology including white blood cell count was analyzed with the help of Automatic Hematology Analyzer (Medonic).
Before sacrifice, blood was drawn from the retro-orbital sinus of mice with the help of heparinised capillary tubes and hematological parameters were assessed with the help of Automatic Hematology Analyzer (Medonic CA535).

[5] = mouse, in vivo; remark: listed apart in the source
Protocol: as §3
After 90d of oral treatment with ICB3001, 3 mice in each group were sacrificed and major organs were placed in 10% formalin to prepare histological slides. The slides were stained by haematoxylin-eosin dye.

hepatocarcinoma cells = conditions: cited from earlier work
COX-1 = COX-1 (Homo sapiens, UniProt P23219); conditions: cited from earlier work
COX-1, sequence (P23219 24-599): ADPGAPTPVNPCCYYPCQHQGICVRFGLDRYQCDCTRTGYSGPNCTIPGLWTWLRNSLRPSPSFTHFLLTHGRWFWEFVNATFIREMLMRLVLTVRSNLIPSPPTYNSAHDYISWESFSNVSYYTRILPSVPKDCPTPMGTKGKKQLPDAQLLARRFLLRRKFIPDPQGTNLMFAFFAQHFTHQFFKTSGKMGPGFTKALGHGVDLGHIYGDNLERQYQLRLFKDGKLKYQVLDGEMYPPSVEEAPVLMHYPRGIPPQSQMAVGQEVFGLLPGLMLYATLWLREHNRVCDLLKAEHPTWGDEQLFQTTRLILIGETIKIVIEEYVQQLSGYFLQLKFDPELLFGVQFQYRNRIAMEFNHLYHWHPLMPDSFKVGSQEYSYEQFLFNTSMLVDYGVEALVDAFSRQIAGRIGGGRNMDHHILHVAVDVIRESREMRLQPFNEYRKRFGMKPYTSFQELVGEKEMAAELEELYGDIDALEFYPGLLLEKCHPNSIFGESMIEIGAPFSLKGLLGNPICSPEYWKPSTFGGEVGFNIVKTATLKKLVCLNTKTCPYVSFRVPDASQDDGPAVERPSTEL

NF-κB pathway = conditions: lipopolysaccharide (LPS)-induced macrophages; cited from earlier work
[6] = listed as compound of formula I

For `C=CCc1ccc(O)c(O)c1` [Compound 1, 4-allyl-benzene-1,2-diol], which IC50 (IL-4 [1]) is on record?
Its IC50 is 5 µM.

And the “reduction of lung IL-4 compared to DEX treated mice” value (IL-4 [2]; 10 mg/kg)?
The value was “approx. 65%”.

And the “IL-4 levels in lung” value (IL-4 [2])?
The value was “a decrease in the IL-4 levels”.

What about the “IL-4 levels in lung” value (IL-4 [2]; [6]) of the same compound?
Its value is “a significant reduction in the IL-4 levels”.

What about the “OVA specific IgE levels in sera” value (OVA specific IgE) of the same compound?
The value was “significantly reduced the OVA specific IgE levels in sera”.

What about the “OVA specific IgE levels in sera” value (OVA specific IgE; [6]) of the same compound?
Its value is “significant reduction”.

And the “lung inflammation (H&E)” value (lung inflammation; 5 mg/kg)?
Its value is “mild reduction of inflammation”.

And the “lung inflammation (H&E)” value (lung inflammation; 10 mg/kg)?
Its value is “a significant reduction in both peribronchial and perivascular inflammation”.

What about the “acute oral (level) established from body weight, organ weight, necropsy, immunotoxicity, hematology, clinical chemistry, cage side observation” value ([3]; mice) of the same compound?
Its value is 23 mg/kg.

And the “necropsy findings in vital organs” value ([3]; mouse, in vivo)?
The value was “no gross or microscopic lesion”.

What about the “clinical signs on day of administration” value ([3]; mouse, in vivo, po) of the same compound?
Its value is “transient symptoms of restlessness and rapid rate of respiration that persisted for 30 minutes post administration”.

What about the “feed and water consumption” value ([3]; mouse, in vivo, po) of the same compound?
Its value is “comparable to vehicle control group”.

And the morbidity and/or mortality ([3]; single oral 47, 23 and 12 mg/kg bw)?
Its morbidity and/or mortality is “did not result in any morbidity and/or mortality”.

What about the “predicted acute oral LD50” value (3T3 cells) of the same compound?
The value was 168 mg/kg.

And the “in vivo acute oral LD50” value (In vivo acute oral LD50)?
The value was 268 mg/kg bw.

What about the “Hemoglobin, RBC and WBC counts vs normal range” value [4] of the same compound?
Its value is “within the normal range”.

And the “platelet counts vs normal range” value [4]?
The value was “below the normal range”.

And the HGB ([4]; 12 mg/kg)?
The HGB was 13.76 ± 0.55 g/dL.

What about the PLT ([4]; 12 mg/kg) of the same compound?
The PLT was 272 ± 93 ×10^3/mm^3.

And the RBC ([4]; 12 mg/kg)?
The RBC was 10.07 ± 0.67 ×10^6/mm^3.

What about the WBC ([4]; 12 mg/kg) of the same compound?
The WBC was 8.66 ± 1.27 ×10^3/mm^3.

What about the HGB ([4]; 23 mg/kg) of the same compound?
Its HGB is 13.85 ± 0.35 g/dL.

And the PLT ([4]; 23 mg/kg)?
Its PLT is 306 ± 106 ×10^3/mm^3.

And the RBC ([4]; 23 mg/kg)?
The RBC was 9.82 ± 0.014 ×10^6/mm^3.

What about the WBC ([4]; 23 mg/kg) of the same compound?
The WBC was 10.85 ± 2.11 ×10^3/mm^3.

What about the HGB ([4]; 47 mg/kg) of the same compound?
Its HGB is 12.13 ± 0.57 g/dL.

What about the PLT ([4]; 47 mg/kg) of the same compound?
Its PLT is 319 ± 120 ×10^3/mm^3.

What about the RBC ([4]; 47 mg/kg) of the same compound?
The RBC was 8.51 ± 0.323 ×10^6/mm^3.

And the WBC ([4]; 47 mg/kg)?
The WBC was 10.16 ± 1.03 ×10^3/mm^3.

What about the heart histology [5] of the same compound?
The heart histology was “no significant changes in the histo-architecture”.

What about the kidney histology [5] of the same compound?
Its kidney histology is “no significant changes were observed”.

And the liver histology [5]?
Its liver histology is “no change in the structure of hepatic cells”.

What about the lung histology ([5]; 47 mg/kg) of the same compound?
The lung histology was “slight thickening of intercellular septum and migration of polymorphonuclear lymphocytes”.

What about the “cell cycle arrest and apoptosis” value (hepatocarcinoma cells) of the same compound?
Its value is “induce cell cycle arrest and apoptosis”.

What about the COX-1 inhibition (COX-1) of the same compound?
Its COX-1 inhibition is “potent COX-1/COX-2 inhibitor”.

What about the NF-κB pathway (NF-κB pathway) of the same compound?
Its NF-κB pathway is “inhibited NF-κB pathway”.
